# From US6737383B1, “Herbicidal oxadiazolidines” (priority 1999, dated 2004)
# Tests used:
# [1] = system: bedstraw; assay: Test B pre/postemergence bedstraw; assay type: in vivo, Galium aparine
# In short: (§1)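 Response is a visual 0-to-10 score relative to untreated plants, where 0 means no effect and 10 means complete control, taken twelve to sixteen days after application. Treatments went onto soil at planting and onto foliage of 1- to 4-leaf plants, using a surfactant-containing non-phytotoxic solvent.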
# [2] = system: blackgrass; assay: Test B pre/postemergence blackgrass; assay type: in vivo, Alopecurus myosuroides
# In short: as §1
# [3] = system: surinam grass; assay: Test B pre/postemergence surinam grass; assay type: in vivo, Brachiaria decumbens; conditions: Postemergence
# In short: as §1
# [4] = system: cocklebur; assay: Test B pre/postemergence cocklebur; assay type: in vivo, Xanthium strumarium
# In short: as §1
# [5] = system: corn; assay: Test B pre/postemergence corn; assay type: in vivo, Zea mays
# In short: as §1
# [6] = system: crabgrass; assay: Test B pre/postemergence crabgrass; assay type: in vivo, Digitaria sanguinalis
# In short: as §1
# [7] = system: giant foxtail; assay: Test B pre/postemergence giant foxtail; assay type: in vivo, Setaria faberii
# In short: as §1
# [8] = system: morningglory; assay: Test B pre/postemergence morningglory; assay type: in vivo, Ipomoea hederacea
# In short: as §1
# [9] = system: pigweed; assay: Test B pre/postemergence pigweed; assay type: in vivo, Amaranthus retroflexus
# In short: as §1
# [10] = system: rape; assay: Test B pre/postemergence rape; assay type: in vivo, Brassica napus
# In short: as §1
# [11] = system: soybean; assay: Test B pre/postemergence soybean; assay type: in vivo, Glycine max
# In short: as §1
# [12] = system: sugar beet; assay: Test B pre/postemergence sugar beet; assay type: in vivo, Beta vulgaris
# In short: as §1
# [13] = system: velvetleaf; assay: Test B pre/postemergence velvetleaf; assay type: in vivo, Abutilon theophrasti
# In short: as §1
# [14] = system: wheat; assay: Test B pre/postemergence wheat; assay type: in vivo, Triticum aestivum
# In short: as §1
# [15] = system: wild oat; assay: Test B pre/postemergence wild oat; assay type: in vivo, Avena fatua
# In short: as §1
# [16] = system: purple nutsedge; assay: Test B pre/postemergence purple nutsedge; assay type: in vivo, Cyperus rotundus
# In short: as §1
# [17] = Postemergence, Rate 125 g/ha, scale of 0 to 10 where 0 is no effect and 10 is complete control
# [18] = Postemergence, Rate 500 g/ha, scale 0 (no effect) to 10 (complete control)
# [19] = Postemergence, Rate 1000 g/ha, scale 0 to 10 (0 no effect, 10 complete control)
# [20] = Preemergence, Rate 250 g/ha, scale 0 (no effect) to 10 (complete control)
# [21] = Rate 125 g/ha, Preemergence, scale 0 to 10 (0 no effect, 10 complete control)
# [22] = Rate 250 g/ha, Postemergence, scale 0 to 10, 0 is no effect, 10 is complete control
# [23] = Rate 500 g/ha, Preemergence, scale 0 to 10 (0 no effect, 10 complete control)
# [24] = Rate 1000 g/ha, Preemergence, scale 0 to 10 (0 no effect, 10 complete control)
# [25] = Rate 125 g/ha, scale of 0 to 10 where 0 is no effect and 10 is complete control
# [26] = Rate 250 g/ha, scale 0 to 10, 0 is no effect, 10 is complete control
# [27] = Postemergence, Rate 31 g/ha, visual rating, scale 0 to 10 (0 no effect, 10 complete control)
# [28] = Postemergence, Rate 62 g/ha, scale 0 to 10, 0 is no effect, 10 is complete control
# [29] = Preemergence, Rate 31 g/ha, visual rating, scale 0 to 10 (0 no effect, 10 complete control)
# [30] = Rate 62 g/ha, Preemergence, scale 0 to 10
smiles,measurement,setting,value
COC(=O)N(C)CCn1c(=O)on(C(=O)N(c2ccccc2)C(C)C)c1=O [Compound 775],Bedstraw plant response rating,[1]; [17],0
same,Bedstraw plant response rating,[1]; [18],7
same,Bedstraw plant response rating,[1]; [19],7
same,Bedstraw plant response rating,[1]; [20],0
same,Bedstraw plant response rating,[1]; [21],0
same,Bedstraw plant response rating,[1]; [22],2
same,Bedstraw plant response rating,[1]; [23],2
same,"Plant response rating, Bedstraw",[1]; [24],2
same,Blackgrass plant response rating,[2]; [17],0
same,Blackgrass plant response rating,[2]; [18],7
same,Blackgrass plant response rating,[2]; [19],4
same,Blackgrass plant response rating,[2]; [20],9
same,Blackgrass plant response rating,[2]; [21],5
same,Blackgrass plant response rating,[2]; [22],4
same,Blackgrass plant response rating,[2]; [23],10
same,"Plant response rating, Blackgrass",[2]; [24],10
same,B. signalgrass plant response rating,[3]; [25],2
same,B. signalgrass plant response rating,"[3]; Rate 1000 g/ha, scale 0 to 10 (0 no effect, 10 complete control)",9
same,B. signalgrass plant response rating,[3]; [26],3
same,B. signalgrass plant response rating,"[3]; Rate 500 g/ha, scale 0 to 10, 0 is no effect, 10 is complete control",3
same,Cocklebur plant response rating,[4]; [17],0
same,Cocklebur plant response rating,[4]; [18],0
same,Cocklebur plant response rating,[4]; [19],0
same,Cocklebur plant response rating,[4]; [20],0
same,Cocklebur plant response rating,[4]; [21],0
same,Cocklebur plant response rating,[4]; [22],0
same,Cocklebur plant response rating,[4]; [23],0
same,"Plant response rating, Cocklebur",[4]; [24],0
same,Corn plant response rating,[5]; [17],0
same,Corn plant response rating,[5]; [18],0
same,Corn plant response rating,[5]; [19],0
same,Corn plant response rating,[5]; [20],0
same,Corn plant response rating,[5]; [21],0
same,Corn plant response rating,[5]; [22],0
same,Corn plant response rating,[5]; [23],3
same,"Plant response rating, Corn",[5]; [24],4
same,Crabgrass plant response rating,[6]; [17],3
same,Crabgrass plant response rating,[6]; [18],9
same,Crabgrass plant response rating,[6]; [19],9
same,Crabgrass plant response rating,[6]; [20],9
same,Crabgrass plant response rating,[6]; [21],9
same,Crabgrass plant response rating,[6]; [22],7
same,Crabgrass plant response rating,[6]; [23],10
same,"Plant response rating, Crabgrass",[6]; [24],10
same,Giant foxtail plant response rating,[7]; [17],7
same,Giant foxtail plant response rating,[7]; [18],9
same,Giant foxtail plant response rating,[7]; [19],9
same,Giant foxtail plant response rating,[7]; [20],10
same,Giant foxtail plant response rating,[7]; [21],9
same,Giant foxtail plant response rating,[7]; [22],7
same,Giant foxtail plant response rating,[7]; [23],10
same,"Plant response rating, Giant foxtail",[7]; [24],10
same,Morningglory plant response rating,[8]; [17],5
same,Morningglory plant response rating,[8]; [18],6
same,Morningglory plant response rating,[8]; [19],8
same,Morningglory plant response rating,[8]; [21],0
same,Morningglory plant response rating,[8]; [22],6
same,Morningglory plant response rating,[8]; [23],2
same,"Plant response rating, Morningglory",[8]; [24],5
same,Redroot pigweed plant response rating,[9]; [17],3
same,Redroot pigweed plant response rating,[9]; [18],3
same,Redroot pigweed plant response rating,[9]; [19],6
same,Redroot pigweed plant response rating,[9]; [21],0
same,Redroot pigweed plant response rating,[9]; [22],3
same,Redroot pigweed plant response rating,[9]; [23],9
same,"Plant response rating, Redroot pigweed",[9]; [24],10
same,Rape plant response rating,[10]; [17],0
same,Rape plant response rating,[10]; [18],0
same,Rape plant response rating,[10]; [19],0
same,Rape plant response rating,[10]; [21],0
same,Rape plant response rating,[10]; [22],0
same,Rape plant response rating,[10]; [23],0
same,"Plant response rating, Rape",[10]; [24],7
same,Soybean plant response rating,[11]; [18],6
same,Soybean plant response rating,[11]; [21],0
same,Soybean plant response rating,[11]; [22],6
same,Soybean plant response rating,[11]; [23],1
same,"Plant response rating, Soybean",[11]; [24],2
same,Sugarbeets plant response rating,[12]; [18],0
same,Sugarbeets plant response rating,[12]; [21],0
same,Sugarbeets plant response rating,[12]; [22],0
same,Sugarbeets plant response rating,[12]; [23],3
same,"Plant response rating, Sugarbeets",[12]; [24],3
same,Velvetleaf plant response rating,[13]; [18],2
same,Velvetleaf plant response rating,[13]; [21],0
same,Velvetleaf plant response rating,[13]; [22],2
same,Velvetleaf plant response rating,[13]; [23],0
same,"Plant response rating, Velvetleaf",[13]; [24],4
same,Wheat plant response rating,[14]; [18],0
same,Wheat plant response rating,[14]; [21],0
same,Wheat plant response rating,[14]; [22],0
same,Wheat plant response rating,[14]; [23],8
same,"Plant response rating, Wheat",[14]; [24],9
same,Wild oats plant response rating,[15]; [18],0
same,Wild oats plant response rating,[15]; [21],2
same,Wild oats plant response rating,[15]; [22],0
same,Wild oats plant response rating,[15]; [23],8
same,"Plant response rating, Wild oats",[15]; [24],9
same,Nutsedge plant response rating,[16]; [17],0
same,Nutsedge plant response rating,[16]; [19],0
same,Nutsedge plant response rating,[16]; [21],0
same,Nutsedge plant response rating,[16]; [22],0
same,Nutsedge plant response rating,[16]; [23],0
same,"Plant response rating, Nutsedge",[16]; [24],9
CCOP(=O)(OCC)C(C)n1c(=O)on(C(=O)N(c2ccc(F)cc2F)C(C)C)c1=O (centres unmarked) [Compound 776],Bedstraw plant response rating,[1]; [27],0
same,"Plant response rating, Bedstraw",[1]; [28],0
same,Bedstraw plant response rating,[1]; [17],3
same,Bedstraw plant response rating,[1]; [29],0
same,Bedstraw plant response rating,[1]; [20],0
same,Bedstraw plant response rating,[1]; [30],0
same,Bedstraw plant response rating,[1]; [21],0
same,Bedstraw plant response rating,[1]; [22],3
same,Blackgrass plant response rating,[2]; [27],2
same,"Plant response rating, Blackgrass",[2]; [28],2
same,Blackgrass plant response rating,[2]; [17],2
same,Blackgrass plant response rating,[2]; [29],0
same,Blackgrass plant response rating,[2]; [20],2
same,Blackgrass plant response rating,[2]; [30],0
same,Blackgrass plant response rating,[2]; [21],0
same,Blackgrass plant response rating,[2]; [22],2
same,B. signalgrass plant response rating,"[3]; Rate 31 g/ha, visual rating, scale 0 to 10 (0 no effect, 10 complete control)",0
same,"Plant response rating, B. signalgrass","[3]; Rate 62 g/ha, scale 0 to 10, 0 is no effect, 10 is complete control",0
same,B. signalgrass plant response rating,[3]; [25],0
same,B. signalgrass plant response rating,[3]; [26],0
same,Cocklebur plant response rating,[4]; [27],0
same,"Plant response rating, Cocklebur",[4]; [28],0
same,Cocklebur plant response rating,[4]; [17],0
same,Cocklebur plant response rating,[4]; [29],0
same,Cocklebur plant response rating,[4]; [22],0
same,Corn plant response rating,[5]; [27],0
same,"Plant response rating, Corn",[5]; [28],0
same,Corn plant response rating,[5]; [17],0
same,Corn plant response rating,[5]; [29],0
same,Corn plant response rating,[5]; [20],1
same,Corn plant response rating,[5]; [30],0
same,Corn plant response rating,[5]; [21],0
same,Corn plant response rating,[5]; [22],0
same,Crabgrass plant response rating,[6]; [27],2
same,"Plant response rating, Crabgrass",[6]; [28],2
same,Crabgrass plant response rating,[6]; [17],2
same,Crabgrass plant response rating,[6]; [29],5
same,Crabgrass plant response rating,[6]; [20],9
same,Crabgrass plant response rating,[6]; [30],5
same,Crabgrass plant response rating,[6]; [21],8
same,Crabgrass plant response rating,[6]; [22],2
same,Giant foxtail plant response rating,[7]; [27],2
same,"Plant response rating, Giant foxtail",[7]; [28],2
same,Giant foxtail plant response rating,[7]; [17],2
same,Giant foxtail plant response rating,[7]; [29],5
same,Giant foxtail plant response rating,[7]; [20],9
same,Giant foxtail plant response rating,[7]; [30],9
same,Giant foxtail plant response rating,[7]; [21],9
same,Giant foxtail plant response rating,[7]; [22],2
same,Morningglory plant response rating,[8]; [27],4
same,"Plant response rating, Morningglory",[8]; [28],7
same,Morningglory plant response rating,[8]; [17],7
same,Morningglory plant response rating,[8]; [30],0
same,Morningglory plant response rating,[8]; [21],2
same,Redroot pigweed plant response rating,[9]; [27],0
same,"Plant response rating, Redroot pigweed",[9]; [28],2
same,Redroot pigweed plant response rating,[9]; [17],2
same,Redroot pigweed plant response rating,[9]; [30],0
same,Redroot pigweed plant response rating,[9]; [21],0
same,Redroot pigweed plant response rating,[9]; [22],2
same,Rape plant response rating,[10]; [27],0
same,"Plant response rating, Rape",[10]; [28],2
same,Rape plant response rating,[10]; [17],2
same,Rape plant response rating,[10]; [30],0
same,Rape plant response rating,[10]; [21],0
same,Rape plant response rating,[10]; [22],2
same,Soybean plant response rating,[11]; [27],1
same,"Plant response rating, Soybean",[11]; [28],2
same,Soybean plant response rating,[11]; [30],0
same,Soybean plant response rating,[11]; [21],0
same,Soybean plant response rating,[11]; [22],2
same,Sugarbeets plant response rating,[12]; [27],0
same,"Plant response rating, Sugarbeets",[12]; [28],0
same,Sugarbeets plant response rating,[12]; [30],0
same,Sugarbeets plant response rating,[12]; [21],0
same,Sugarbeets plant response rating,[12]; [22],3
same,Velvetleaf plant response rating,[13]; [27],2
same,"Plant response rating, Velvetleaf",[13]; [28],3
same,Velvetleaf plant response rating,[13]; [30],0
same,Velvetleaf plant response rating,[13]; [21],0
same,Velvetleaf plant response rating,[13]; [22],3
same,Wheat plant response rating,[14]; [27],0
same,"Plant response rating, Wheat",[14]; [28],0
same,Wheat plant response rating,[14]; [30],0
same,Wheat plant response rating,[14]; [21],2
same,Wheat plant response rating,[14]; [22],0
same,Wild oats plant response rating,[15]; [27],0
same,"Plant response rating, Wild oats",[15]; [28],0
same,Wild oats plant response rating,[15]; [30],2
same,Wild oats plant response rating,[15]; [21],2
same,Wild oats plant response rating,[15]; [22],0
same,Nutsedge plant response rating,[16]; [27],0
same,"Plant response rating, Nutsedge",[16]; [28],0
same,Nutsedge plant response rating,[16]; [17],0
same,Nutsedge plant response rating,[16]; [30],0
same,Nutsedge plant response rating,[16]; [22],0
